Assays:
[1] = system: rat model of lithium-pilocarpine-induced epilepsy; assay: Rat model of lithium-pilocarpine-induced epilepsy (SE), highest seizure grade score; assay type: in vivo, Sprague Dawley (SD) rats; conditions: 300 mg/kg oral gavage, 1 h after SE onset; acute phase; Racine 0-6
Experimental: (1) Experimental Animals: SPF Adult Male Sprague Dawley (SD) Rats, with a Weight of 200-250 g.
Methylscopolamine bromide, lithium chloride, and pilocarpine were weighed, and experimental drugs were dissolved to working concentrations (100 mg/mL of lithium chloride solution, 1 mg/mLof methylscopolamine bromide solution, and 20 mg/mL of pilocarpine solution) with 0.9% saline. Rats were injected intraperitoneally with lithium chloride (a dose of 127 mg/kg), and 18-20 h later, scopolamine methylbromide (a dose of 1 mg/kg) was injected intraperitoneally. […] Thereafter, an additional dose of 10 mg/kg pilocarpine was injected intraperitoneally every 30 min until the onset of a grade IV or higher status epilepticus (SE)-like seizure without significant intermittent intervals, with a maximum dose of 60 mg/kg.
Model inclusion criterion: experimental animals presenting continuous seizures of grade IV or higher for 1 h was judged as successful modeling.
The rats with successful modeling were randomly divided into three groups, namely a model group, a CTMB group, and a sodium valproate (VPA) group. […]
Referring to the grading scale of Racine scores, the seizure symptoms of each group of rats after the drug intervention were observed, and the seizure grades of each group of rats in the acute phase were recorded. […]

[2] = system: Parkinson's disease (PD) mice, 6-OHDA method; assay: 6-OHDA Parkinson's disease mice, rod-climbing experiment; assay type: in vivo, C57 mice; conditions: Group L, levodopa: benserazide hydrochloride=4:1, 12 mg/kg ip
Experimental: (§1) The mice were randomly divided into a sham operation group (group S, given a blank emulsion with a volume equal to that of the administered group), a model group (group M, given a blank emulsion with a volume equal to that of the administered group), a CTMB group (20 mg/kg, group D), and a levodopa group (levodopa: benserazide hydrochloride=4:1, 12 mg/kg, group L), each group included 10-12 mice, and all of them were administered intraperitoneally.
(§2) Preoperatively, mice were fasted for 12 h, and mice were anesthetized with 4% isoflurane induction and maintained with 1.5% isoflurane. The mice were subsequently immobilized on a brain stereotaxic apparatus. The bregma and lambda points were exposed by gently wiping the cranial surface with a cotton swab after cutting the scalp. The stereotaxic apparatus was adjusted to align the heights of the bregma and lambda points, thereby leveling the skull. The bregma point was designated as the origin, the coordinates where the injection site was located were located, and the drill was used to drill a small hole in the skull above the injection site.
(§3) 6-OHDA (12.5 μg/μL) was injected into the striatum region (AP+0.5 mm; ML+2.00 mm; DV-3.00 mm and-2.00 mm) of the mice, and 1 μL 6-OHDA was injected into each of the two points at a rate of 0.5 μL/min. The needle was left in place for 3 min after the injection was completed, and then the injection needle was lifted, and the scalp of the mice was sutured and disinfected. The sham operation group was injected with an equal volume of saline containing 0.02% ascorbic acid, and other operations were performed as above. After the procedure, the mice were placed in the cage at an appropriate temperature. After awakening from anesthesia, the mice were kept normally.
The rod-climbing experiment: the rod-climbing experiment was mainly used to test the limb movement ability of mice and to assess the symptoms of motor delay. This experiment evaluated the ability of mice to grasp and maneuver on a pole to descend to their home cage. A cork ball was fixed to an iron pole with a diameter of 1 cm and a length of 65 cm. The head of the mice was put down on the top of the pole, and the mice usually naturally descended down along the pole to return to their cage. The time for the mice to descend to the bottom was recorded. Results were averaged over 3 consecutive measurements.
(§4) The motor function of the mice was comprehensively assessed using the rod-climbing experiment and the hanging experiment at 1, 2, 3, and 4 weeks after drug administration.

[3] = system: Parkinson's disease (PD) mice, 6-OHDA method; assay: 6-OHDA Parkinson's disease mice, hanging experiment; assay type: in vivo, C57 mice; conditions: Group L, levodopa: benserazide hydrochloride=4:1, 12 mg/kg ip, cut-off 60 s
Experimental: as §1, §2, §3
The hanging experiment: normal mice have climbing activity, which requires proper grip strength and motor coordination, so the hanging experiment may be used to examine motor dysfunction in mice. A metal rod with a diameter of 1.5 mm was placed horizontally on top of the box, and a distance from the metal rod to the bottom of the box was 30 cm. […] Measurement was performed twice, with an interval of 1 min or more between each test, and the results were averaged over the two times.
as §4

[4] = system: neurons in the substantia nigra region of the midbrain of PD mice; assay: Niehl's staining, number of neuronal Niehl's bodies in substantia nigra of PD mice; assay type: in vivo, C57 mice; conditions: Group L, levodopa: benserazide hydrochloride=4:1, 12 mg/kg ip, after 4 weeks of administration
Experimental: as §1
(§5) After completing the evaluation of motor function after 4 weeks of drug administration, the mice were deeply anesthetized, perfused with 20 mL of saline and 20 mL of 4% paraformaldehyde via the heart, and the brains were rapidly severed and extracted from the head, which were then preserved and fixed in 4% paraformaldehyde for 72 h after removal, and then embedded with paraffin to prepare the slices with a thickness of 4 μm for subsequent pathological and histological studies.
Niehl's staining was used to identify Niehl's bodies in neuronal cells.

[5] = system: neurons of substantia nigra region and striatum of PD mice; assay: HE staining of substantia nigra and striatum of PD mice; assay type: in vivo, C57 mice; conditions: Group L, levodopa: benserazide hydrochloride=4:1, 12 mg/kg ip, 4 weeks; compared with model group; FIG. 5-7
Experimental: as §1, §5
Hematoxylin-eosin (HE) staining may be used to observe changes in the pathological condition of brain tissue. […]

[6] = system: Tyrosine hydroxylase (TH) protein expression; assay: TH protein expression by immunohistochemistry in substantia nigra of PD mice; assay type: in vivo, C57 mice; conditions: Group L, levodopa: benserazide hydrochloride=4:1, 12 mg/kg ip, after 4 weeks of administration
Experimental: as §1, §5
Tyrosine hydroxylase (TH) protein expression was detected by immunohistochemistry. […]

CCCC(CCC)C(=O)[O-].[Na+] [VPA, sodium valproate, reference compound]
Seizure grade score (highest, SE model rats) [1]: 5.00 ± 0.00

N[C@@H](Cc1ccc(O)c(O)c1)C(=O)O [levodopa, Levodopa, reference compound]
Rod-climbing time, 1 week of administration [2]: 6.39 ± 1.18 ^ s | Rod-climbing time, 2 weeks of administration [2]: 5.79 ± 0.49 s | Rod-climbing time, 3 weeks of administration [2]: 5.34 ± 0.84 s | Rod-climbing time, 4 weeks of administration [2]: 4.93 ± 0.59 s | Rod-climbing time, Before administration ([2]; baseline 2 weeks after 6-OHDA): 9.63 ± 2.53 s | Hanging time, Before administration ([3]; baseline 2 weeks after 6-OHDA): 43.7 ± 19.5 s | Hanging time, 1 week of administration [3]: 54.4 ± 8.0 s | Hanging time, 2 weeks of administration [3]: 47.0 ± 16.2 s | Hanging time, 3 weeks of administration [3]: 48.2 ± 18.1 s | Hanging time, 4 weeks of administration [3]: 50.3 ± 12.9 s | Number of Niehl's bodies [4]: 57.8 ± 6.5 | degree of pathological damage to the substantia nigra region and striatum [5]: reduced | TH-positive neurons (a percentage of TH-positive neurons to uninjured side, %) [6]: 18.8 ± 7.6 %

— patent US20250270159A1, “1-(CYCLOBUTANEMETHYLIDENE)-2, 4, 5-TRIMETHOXYBENZENE COMPOUND AND PREPARATION METHOD AND USE THEREOF” (CHENGDU XINRUI TAIKANG TECHNOLOGY CO., LTD., priority 2023, published 2025)
